In US20140303164A1, “THERAPEUTIC COMPOUNDS” (Gilead Sciences, Inc., priority 2013, published 2014):

What was measured:
HIV-IIIb = assay: Test A: Antiviral Assay in MT4 Cells; type: cell-based, HIV-1; details: Human immunodeficiency virus 1, IIIB, MT4, 120 h; for inhibition at 0.2 µM: read-out: % inhibition at 0.2 μM; for inhibition at 2 µM: read-out: % inhibition at 2 μM
Protocol: Test A: Antiviral Assay in MT4 Cells
(§1) MT-4 cells were next mixed with HIV-IIIb at an m.o.i of 0.003 for 1 hour, after which time 35 μL of virus/cell mixture (2000 cells) was immediately added to each well containing 40 μL of diluted compound. The plates were then incubated at 37° C. for 5 days. […] Cell lysis was carried out by incubating at room temperature for 10 min and then chemiluminescence was read.

[1] = Test B: Cytotoxicity Assay; type: cell-based; details: human, uninfected MT-4 cells, same protocol as Test A
Protocol: as §1
Test B: Cytotoxicity Assay
Compound cytotoxicity and the corresponding CC50 values was determined using the same protocol as described in the antiviral assay (Test A) except that uninfected cells were used.

Compound	inhibition at 0.2 µM (HIV-IIIb) [%]	inhibition at 2 µM (HIV-IIIb) [%]	CC50 at 5 days [1] [µM]
Cn1nc(NS(C)(=O)=O)c2cccc(-c3cnc(C#CC(C)(C)O)nc3[C@H](Cc3cc(F)cc(F)c3)NC(=O)Cn3nc(C(F)(F)F)c4c3C(F)(F)[C@@H]3C[C@H]43)c21 [Compound 41, 2-((3bS,4aR)-5,5-difluoro-3-(trifluoromethyl)-3b,4,4a,5-tetrahydro-1H-cyclopropa[3,4]cyclopenta[1,2-c]pyrazol-1-yl)-N—((S)-2-(3,5-difluorophenyl)-1-(2-(3-hydroxy-3-methylbut-1-yn-1-yl)-5-(1-methyl-3-(methylsulfonamido)-1H-indazol-7-yl)pyrimidin-4-yl)ethyl)acetamide]	98	98	7.63
Cc1ccc(-c2ccc(C#CC(C)(C)C)nc2[C@H](Cc2cc(F)cc(F)c2)NC(=O)Cn2nc(C(F)F)c3c2C(F)(F)[C@@H]2C[C@H]32)c2nnc(NS(C)(=O)=O)n12 [Compound 133, 2-((3bS,4aR)-3-(difluoromethyl)-5,5-difluoro-3b,4,4a,5-tetrahydro-1H-cyclopropa[3,4]cyclopenta[1,2-c]pyrazol-1-yl)-N—((S)-2-(3,5-difluorophenyl)-1-(6-(3,3-dimethylbut-1-yn-1-yl)-3-(5-methyl-3-(methylsulfonamido)-[1,2,4]triazolo[4,3-a]pyridin-8-yl)pyridin-2-yl)ethyl)acetamide]	90	90	16.8
Cn1nc(NS(C)(=O)=O)c2c(Cl)ccc(-c3ccc(C#CC(C)(C)O)nc3[C@H](Cc3cc(F)cc(F)c3)NC(=O)Cn3nc(C#N)c4c3C(F)(F)[C@@H]3C[C@H]43)c21 [Compound 159, N—((S)-1-(3-(4-chloro-1-methyl-3-(methylsulfonamido)-1H-indazol-7-yl)-6-(3-hydroxy-3-methylbut-1-yn-1-yl)pyridin-2-yl)-2-(3,5-difluorophenyl)ethyl)-2-((3bS,4aR)-3-cyano-5,5-difluoro-3b,4,4a,5-tetrahydro-1H-cyclopropa[3,4]cyclopenta[1,2-c]pyrazol-1-yl)acetamide]	95	95	27.4
Cn1cnc(S(=O)(=O)Nc2nn(C)c3c(-c4ccc(C#CC(C)(C)O)nc4[C@H](Cc4cc(F)cc(F)c4)NC(=O)Cn4nc(C(F)(F)F)c5c4C(F)(F)[C@@H]4C[C@H]54)cccc23)c1 [Compound 47, 2-((3bS,4aR)-5,5-difluoro-3-(trifluoromethyl)-3b,4,4a,5-tetrahydro-1H-cyclopropa[3,4]cyclopenta[1,2-c]pyrazol-1-yl)-N—((S)-2-(3,5-difluorophenyl)-1-(6-(3-hydroxy-3-methylbut-1-yn-1-yl)-3-(1-methyl-3-(1-methyl-1H-imidazole-4-sulfonamido)-1H-indazol-7-yl)pyridin-2-yl)ethyl)acetamide]	100	100	21.4
CNCC(=O)Nc1nn(C)c2c(-c3ccc(C#CC(C)(C)O)nc3[C@H](Cc3cc(F)cc(F)c3)NC(=O)Cn3nc(C(F)F)c4c3C(F)(F)[C@@H]3C[C@H]43)ccc(Cl)c12 [Compound 101, N—((S)-1-(3-(4-chloro-1-methyl-3-(2-(methylamino)acetamido)-1H-indazol-7-yl)-6-(3-hydroxy-3-methylbut-1-yn-1-yl)pyridin-2-yl)-2-(3,5-difluorophenyl)ethyl)-2-((3bS,4aR)-3-(difluoromethyl)-5,5-difluoro-3b,4,4a,5-tetrahydro-1H-cyclopropa[3,4]cyclopenta[1,2-c]pyrazol-1-yl)acetamide]	95	95	6.53
O=C(Cn1nc(C(F)F)c2c1C(F)(F)CCC2(F)F)N[C@@H](Cc1cc(F)cc(F)c1)c1nc(-c2c[nH]nn2)ccc1-c1cnc2[nH]ccc2c1 [Compound 16C, (S)—N-(1-(3-(1H-pyrrolo[2,3-b]pyridin-5-yl)-6-(1H-1,2,3-triazol-4-yl)pyridin-2-yl)-2-(3,5-difluorophenyl)ethyl)-2-(3-(difluoromethyl)-4,4,7,7-tetrafluoro-4,5,6,7-tetrahydro-1H-indazol-1-yl)acetamide]	23	65	3.67
Cn1nc(NS(C)(=O)=O)c2c(Cl)ccc(-c3ccc(C#CC(C)(C)O)nc3[C@H](Cc3cc(F)cc(F)c3)NC(=O)Cn3nc(I)c4c3C(F)(F)[C@@H]3C[C@H]43)c21 [Compound 160, N—((S)-1-(3-(4-chloro-1-methyl-3-(methylsulfonamido)-1H-indazol-7-yl)-6-(3-hydroxy-3-methylbut-1-yn-1-yl)pyridin-2-yl)-2-(3,5-difluorophenyl)ethyl)-2-((3bS,4aR)-5,5-difluoro-3-iodo-3b,4,4a,5-tetrahydro-1H-cyclopropa[3,4]cyclopenta[1,2-c]pyrazol-1-yl)acetamide]	100	100	20.5
Cc1ccc(-c2ccc(C#CC(C)(C)O)nc2[C@H](Cc2cc(F)cc(F)c2)NC(=O)Cn2nc(C(F)F)c3c2C(F)(F)[C@@H]2C[C@H]32)c2c1c(N)nn2C [Compound 58G, N—((S)-1-(3-(3-amino-1,4-dimethyl-1H-indazol-7-yl)-6-(3-hydroxy-3-methylbut-1-yn-1-yl)pyridin-2-yl)-2-(3,5-difluorophenyl)ethyl)-2-((3b-S,4aR)-3-(difluoromethyl)-5,5-difluoro-3b,4,4a,5-tetrahydro-1H-cyclopropa[3,4]cyclopenta[1,2-c]pyrazol-1-yl)acetamide]	95	95	8.44
COc1ccc(-c2ccc(C#CC(C)(C)O)nc2[C@H](Cc2cc(F)cc(F)c2)NC(=O)Cn2nc(C(F)F)c3c2C(F)(F)[C@@H]2C[C@H]32)c2c1c(N)nn2C [Compound 114G, N—((S)-1-(3-(3-amino-4-methoxy-1-methyl-1H-indazol-7-yl)-6-(3-hydroxy-3-methylbut-1-yn-1-yl)pyridin-2-yl)-2-(3,5-difluorophenyl)ethyl)-2-((3b-S,4aR)-3-(difluoromethyl)-5,5-difluoro-3b,4,4a,5-tetrahydro-1H-cyclopropa[3,4]cyclopenta[1,2-c]pyrazol-1-yl)acetamide]	100	100	14.8
CN(C)CC#Cc1ccc(-c2cccc3c(NS(C)(=O)=O)nn(C)c23)c([C@H](Cc2cc(F)cc(F)c2)NC(=O)Cn2nc(C(F)(F)F)c3c2C(F)(F)[C@@H]2C[C@H]32)n1 [Compound 61B, 2-((3bS,4aR)-5,5-difluoro-3-(trifluoromethyl)-3b,4,4a,5-tetrahydro-1H-cyclopropa[3,4]cyclopenta[1,2-c]pyrazol-1-yl)-N—((S)-2-(3,5-difluorophenyl)-1-(6-(3-(dimethylamino)prop-1-yn-1-yl)-3-(1-methyl-3-(methylsulfonamido)-1H-indazol-7-yl)pyridin-2-yl)ethyl)acetamide]	96	96	14.3
CNc1nnc2c(-c3ccc(C#CC(C)(C)O)nc3[C@H](Cc3cc(F)cc(F)c3)NC(=O)Cn3nc(C(F)F)c4c3C(F)(F)[C@@H]3C[C@H]43)cccn12 [Compound 76F, 2-((3bS,4aR)-3-(difluoromethyl)-5,5-difluoro-3b,4,4a,5-tetrahydro-1H-cyclopropa[3,4]cyclopenta[1,2-c]pyrazol-1-yl)-N—((S)-2-(3,5-difluorophenyl)-1-(6-(3-hydroxy-3-methylbut-1-yn-1-yl)-3-(3-(methylamino)-[1,2,4]triazolo[4,3-a]pyridin-8-yl)pyridin-2-yl)ethyl)acetamide]	98	98	22.6
C[C@H](O)C#Cc1ccc(-c2ccc(Cl)c3c(NS(C)(=O)=O)nn(C)c23)c([C@H](Cc2cc(F)cc(F)c2)NC(=O)Cn2nc(C(F)F)c3c2C(F)(F)[C@@H]2C[C@H]32)n1 [Compound 142, N—((S)-1-(3-(4-chloro-1-methyl-3-(methylsulfonamido)-1H-indazol-7-yl)-6-((S)-3-hydroxybut-1-yn-1-yl)pyridin-2-yl)-2-(3,5-difluorophenyl)ethyl)-2-((3bS,4aR)-3-(difluoromethyl)-5,5-difluoro-3b,4,4a,5-tetrahydro-1H-cyclopropa[3,4]cyclopenta[1,2-c]pyrazol-1-yl)acetamide]	92	92	12.6
Cn1nc(NS(C)(=O)=O)c2c(Cl)ccc(-c3ccc(C#CC(C)(C)O)nc3[C@H](Cc3cc(F)cc(F)c3)NC(=O)Cc3ccc4ccccc4c3)c21 [Compound 200, (S)—N-(1-(3-(4 chloro-1-methyl-3-(methylsulfonamido)-1H-indazol-7-yl)-6-(3-hydroxy-3-methylbut-1-yn-1-yl)pyridin-2-yl)-2-(3,5-difluorophenyl)ethyl)-2-(naphthalen-2-yl)acetamide]	89	90	12.2
Cc1ccc(C)c2c1NC(=O)C2CC(=O)N[C@@H](Cc1cc(F)cc(F)c1)c1nc(C#CC(C)(C)O)ccc1-c1ccc(Cl)c2c(NS(C)(=O)=O)nn(C)c12 (stereo partly drawn) [Compound 196, N—((S)-1-(3-(4-chloro-1-methyl-3-(methylsulfonamido)-1H-indazol-7-yl)-6-(3-hydroxy-3-methylbut-1-yn-1-yl)pyridin-2-yl)-2-(3,5-difluorophenyl)ethyl)-2-(4,7-dimethyl-2-oxoindolin-3-yl)acetamide]	76	92	10.8
